In data set [1] the test system is P. aeruginosa (ATCC 27853). The data set is described as follows: Microdilution susceptibility testing. Conditions: for IC50: ATCC27853, read-out: IC50 ± SEM. (Broth dilution looks for growth in wells or tubes with falling amounts of substance.)
The test system of the next data set is E. coli (ATCC 25922). The data set is described as follows: Microdilution susceptibility testing.
The subject of data set [2] is K. pneumoniae (ATCC 13883). The data set is described as follows: Microdilution susceptibility testing. Conditions: for IC50: ATCC13883, read-out: IC50 ± SEM.
The subject of data set [3] is CIMRSA 1. Nature of the data set: Microdilution susceptibility testing. Conditions: for IC50: read-out: IC50 ± SEM.
The next data set relates to MRSA ATCC 43300. Nature of the data set: Microdilution susceptibility testing. Conditions: for IC50: read-out: IC50 ± SEM.
In another data set the test system is CIMRSA 2. Nature of the data set: Microdilution susceptibility testing. Conditions: for IC50: read-out: IC50 ± SEM.
Data set [4] in a line: Cytotoxicity testing, MTT assay. The data set is classed as cell-based. Conditions: human.
Data set [5] concerns S. saprophyticus (ATCC 15305). Nature of the data set: Microdilution susceptibility testing. Conditions: for IC50: ATCC15305, read-out: IC50 ± SEM.
The test system of another data set is S. aureus (ATCC 29213). Nature of the data set: Microdilution susceptibility testing. Conditions: for IC50: ATCC29213, read-out: IC50 ± SEM.
Another data set deals with B. cereus (ATCC 10876). Nature of the data set: Microdilution susceptibility testing. Conditions: for IC50: ATCC10876, read-out: IC50 ± SEM.
Data set [6] concerns CIMRSA 1. The data set is described as follows: Determination of bactericidal concentration. The data set is classed as cell-based, Clinical isolate of methicillin-resistant S. aureus. Conditions: CIMRSA 1 and 2 (both strains, text summary).
The subject of data set [7] is Peripheral blood mononuclear cells (PBMC). The data set is described as follows: Cytotoxicity testing, MTT assay. The data set is classed as cell-based. Background: Formazan colour is commonly taken as a measure of viable cells.
Data set [8] relates to Gram-positive and Gram-negative bacteria. Nature of the data set: Antibacterial activity against the bacteria of Table 1. Conditions: all bacteria presented in Table 1, result in words.
Data set [9] concerns Mycobacterium tuberculosis. Conditions: ref Carballeira et al., 2006; cited from earlier work.
The mark [10] stands for this setting: Pseudomonas aeruginosa, ATCC27853.
The mark [11] stands for this setting: Klebsiella pneumoniae, ATCC13883.
The mark [12] stands for this setting: Staphylococcus aureus, ATCC43300|MRSA.
The mark [13] stands for this setting: Staphylococcus saprophyticus, ATCC15305, S. saprophyticus ATCC 15305, 37°C, 18-24 h.
[14] abbreviates: Staphylococcus aureus, ATCC29213.
The mark [15] stands for this setting: P. aeruginosa ATCC 27853, 37°C, 18-24 h.
[16] abbreviates: E. coli ATCC 25922, 37°C, 18-24 h.
Where [17] appears, read: K. pneumoniae ATCC 13883, 37°C, 18-24 h.
The mark [18] stands for this setting: S. saprophyticus ATCC 15305, 37°C, 18-24 h.
[19] abbreviates: S. aureus ATCC 29213, 37°C, 18-24 h.
Setting [20] is: B. cereus ATCC 10876, 37°C, 18-24 h.

Values after ≈ are worked out from the molar mass of the structure shown.

Broadly, the MIC is the least concentration at which growth counts as inhibited. Usually IC50 stands for the concentration at which inhibition is half-maximal. Consider `COc1cccc(OC)c1C(=O)N[C@@H]1C(=O)N2[C@@H]1SC(C)(C)[C@@H]2C(=O)O` [Methicillin, reference compound], for which the MIC in [1] (setting [10]) was > 1000 µg/mL; with E. coli (ATCC 25922) (Escherichia coli, ATCC25922), > 1000 µg/mL; in data set [2] (setting [11]), 0.98 µg/mL (≈ 2.58 µM); in the data set on CIMRSA 1 [3] (Staphylococcus aureus) it was 7.8 µg/mL (≈ 20.5 µM); in the data set on MRSA ATCC 43300 (setting [12]), 1.95 µg/mL (≈ 5.13 µM); against CIMRSA 2 (Staphylococcus aureus), 31.3 µg/mL (≈ 82.3 µM). The minimum inhibitory concentration (MIC) was 0.12 µg/mL (≈ 0.315 µM) in data set [5] (setting [13]); 0.06 µg/mL (≈ 0.158 µM) with S. aureus (ATCC 29213) (setting [14]); 62.5 µg/mL (≈ 164 µM) against B. cereus (ATCC 10876) (Bacillus cereus, ATCC10876). Also, the IC50 in data set [2] (Klebsiella pneumoniae) stood at 0.36 µg/mL (≈ 0.946 µM); in the data set with CIMRSA 1 [3] (Staphylococcus aureus), 2.2 µg/mL (≈ 5.78 µM); in the data set on MRSA ATCC 43300 (setting [12]) it was 0.98 µg/mL (≈ 2.58 µM); in the data set on CIMRSA 2 (Staphylococcus aureus) it was 11.8 µg/mL (≈ 31 µM); in data set [5] (Staphylococcus saprophyticus) it was 0.06 µg/mL (≈ 0.158 µM); in the data set with S. aureus (ATCC 29213) (Staphylococcus aureus), 0.03 µg/mL (≈ 0.0789 µM). For the same compound, in the data set on B. cereus (ATCC 10876) (Bacillus cereus), the IC50 is 38.2 µg/mL (≈ 100 µM). Also, 86.1 ± 0.5 µg/mL (≈ 226 µM) corresponded to half-maximal inhibition in [4] (IC50 at 3 days).

On to `CCCCCCC#CCCCCCC#CC(=O)O` [2,9-HDA], for which the MIC is >1,000 μg/mL in data set [1] (setting [15]); >1,000 μg/mL in the data set on E. coli (ATCC 25922) (setting [16]); 250 µg/mL (≈ 1010 µM) in data set [2] (setting [17]); 250 µg/mL (≈ 1010 µM) against CIMRSA 1 [3] (CIMRSA 1); 500 µg/mL (≈ 2010 µM) in the data set on MRSA ATCC 43300 (MRSA ATCC 43300); 250 µg/mL (≈ 1010 µM) against CIMRSA 2 (CIMRSA 2). In addition, the MIC in data set [5] (setting [18]) came out at 125 µg/mL (≈ 503 µM); with S. aureus (ATCC 29213) (setting [19]), 250 µg/mL (≈ 1010 µM); in the data set with B. cereus (ATCC 10876) (setting [20]) it was 62.5 µg/mL (≈ 252 µM). The “IC50 ± SEM” value in [2] (setting [17]) turned out to be 135.4 ± 0.7 µg/mL (≈ 545 µM); in the data set on CIMRSA 1 [3] (CIMRSA 1) it was 102.1 ± 2.4 µg/mL (≈ 411 µM); with MRSA ATCC 43300 (MRSA ATCC 43300), 203.5 ± 2.6 µg/mL (≈ 819 µM); in the data set on CIMRSA 2 (CIMRSA 2), 76.0 ± 2.4 µg/mL (≈ 306 µM); in data set [5] (setting [18]), 61.5 ± 1.2 µg/mL (≈ 248 µM); in the data set with S. aureus (ATCC 29213) (setting [19]), 94.0 ± 0.9 µg/mL (≈ 378 µM). For the same compound, in the data set with B. cereus (ATCC 10876) (setting [20]), the “IC50 ± SEM” value was 34.2 ± 0.3 µg/mL (≈ 138 µM). The same compound came in with a bactericidal concentration in the data set on CIMRSA 1 [6] of 125 to 500 µg/mL. Also, the “PBMC cytotoxicity, IC50 ± SEM” value in [7] turned out to be 93.3 ± 0.4 µg/mL.

For the compound `CCCCCCCCCCCCCC#CCO` [Compound 2-HDOH, 2-Hexadecyn-1-ol], the MIC in [1] (setting [10]) is > 1000 µg/mL; in the data set with E. coli (ATCC 25922) (Escherichia coli, ATCC25922), > 1000 µg/mL; in [2] (setting [11]), > 1000 µg/mL; in data set [5] (setting [13]), > 1000 µg/mL; in the data set with S. aureus (ATCC 29213) (setting [14]) it was > 1000 µg/mL; in the data set on B. cereus (ATCC 10876) (Bacillus cereus, ATCC10876), > 1000 µg/mL. Besides, the antibacterial activity result in [8] is “not active”.

Consider `CCCCCCCCCCCCCCCCCC#CC(=O)O` [Compound 2-ICA, 2-icosanoic acid], for which the MIC (in data set [1] (setting [15]); with E. coli (ATCC 25922) (setting [16]); in data set [2] (setting [17]); in [5] (setting [18]); in the data set with S. aureus (ATCC 29213) (setting [19]); against B. cereus (ATCC 10876) (setting [20])) was >1,000 μg/mL each time. Moreover, in data set [8], the antibacterial activity result is “did not show antibacterial activity”.

For the compound `O=C(O)c1cn(C2CC2)c2cc(N3CCNCC3)c(F)cc2c1=O` [Ciprofloxacin, reference compound], the minimal inhibitory concentration (MIC) in data set [1] (setting [10]) was 0.24 µg/mL (≈ 0.724 µM); in the data set on E. coli (ATCC 25922) (Escherichia coli, ATCC25922), < 0.008 µg/mL; in data set [2] (setting [11]), 0.24 µg/mL (≈ 0.724 µM); against MRSA ATCC 43300 (setting [12]), 0.5 µg/mL (≈ 1.51 µM); in data set [5] (setting [13]), < 0.002 µg/mL; against S. aureus (ATCC 29213) (setting [14]), 0.25 µg/mL (≈ 0.754 µM). In the data set with B. cereus (ATCC 10876) (Bacillus cereus, ATCC10876), the MIC turned out to be 0.05 µg/mL (≈ 0.151 µM). The IC50 came to 0.11 µg/mL (≈ 0.332 µM) in data set [1] (Pseudomonas aeruginosa); 0.13 µg/mL (≈ 0.392 µM) in data set [2] (Klebsiella pneumoniae); 0.2 µg/mL (≈ 0.604 µM) with MRSA ATCC 43300 (setting [12]); 0.14 µg/mL (≈ 0.423 µM) in the data set with S. aureus (ATCC 29213) (Staphylococcus aureus); 0.03 µg/mL (≈ 0.0905 µM) with B. cereus (ATCC 10876) (Bacillus cereus). This compound registered a half-maximal inhibitory concentration (IC50) at 3 days in [4] of 66.4 ± 0.6 µg/mL (≈ 200 µM).

On to `CCCCCCCCCC#CCCC#CC(=O)O` [2,6-HDA, 2,6-hexadecadiynoic acid], for which the MIC is 250 µg/mL (≈ 1010 µM) in [1] (setting [10]); > 1000 µg/mL in the data set with E. coli (ATCC 25922) (Escherichia coli, ATCC25922); 62.5 µg/mL (≈ 252 µM) in [2] (setting [11]); 62.5 µg/mL (≈ 252 µM) against CIMRSA 1 [3] (Staphylococcus aureus); 62.5 µg/mL (≈ 252 µM) in the data set with MRSA ATCC 43300 (setting [12]); 62.5 µg/mL (≈ 252 µM) with CIMRSA 2 (Staphylococcus aureus). For the same compound, the MIC in data set [5] (setting [13]) was determined as 62.5 µg/mL (≈ 252 µM); against S. aureus (ATCC 29213) (setting [14]), 31.3 µg/mL (≈ 126 µM); with B. cereus (ATCC 10876) (Bacillus cereus, ATCC10876), 62.5 µg/mL (≈ 252 µM). Further, the IC50 in data set [1] (Pseudomonas aeruginosa) worked out at 132 µg/mL (≈ 533 µM); in data set [2] (Klebsiella pneumoniae) it was 31.2 µg/mL (≈ 126 µM); in the data set on CIMRSA 1 [3] (Staphylococcus aureus) it was 39.5 µg/mL (≈ 159 µM); in the data set on MRSA ATCC 43300 (setting [12]) it was 22.3 µg/mL (≈ 89.8 µM); in the data set with CIMRSA 2 (Staphylococcus aureus), 22.4 µg/mL (≈ 90.2 µM); in data set [5] (Staphylococcus saprophyticus), 21.5 µg/mL (≈ 86.6 µM). Further, the IC50 in the data set with S. aureus (ATCC 29213) (Staphylococcus aureus) was 14.1 µg/mL (≈ 56.8 µM); in the data set on B. cereus (ATCC 10876) (Bacillus cereus), 46.1 µg/mL (≈ 186 µM). The compound also showed a bactericidal concentration in the data set with CIMRSA 1 [6] of 125 to 500 µg/mL. In data set [4] (peripheral blood mononuclear cells (PBMC)), this compound had an IC50 at 3 days of 63.4 ± 0.3 µg/mL (≈ 255 µM). The “minimum inhibitory concentrations (MICs)” value in data set [9] is 141 to 145 µM.
